From ChEMBL document CHEMBL1151021, “Synthesis of potent 6-oxo and 9-fluoro-PGE1-derivatives and their biological properties” (Bioorg Med Chem Lett, 1992)
Calls of active or inactive are those of the source. The calls are words filed in the database; no cut-off is given here.

How the values were obtained:
[1] = Concentration required for the inhibition of blood platelet aggregation induced by ADP; type: functional
[2] = The compound was evaluated for the affinity towards PGE-2 receptor
[3] = molecular target: T1, Prostaglandin D2 receptor (Homo sapiens) (UniProt Q13258); assay: The compound was evaluated for the affinity towards PGD-2 receptor
T1 sequence (whole entry): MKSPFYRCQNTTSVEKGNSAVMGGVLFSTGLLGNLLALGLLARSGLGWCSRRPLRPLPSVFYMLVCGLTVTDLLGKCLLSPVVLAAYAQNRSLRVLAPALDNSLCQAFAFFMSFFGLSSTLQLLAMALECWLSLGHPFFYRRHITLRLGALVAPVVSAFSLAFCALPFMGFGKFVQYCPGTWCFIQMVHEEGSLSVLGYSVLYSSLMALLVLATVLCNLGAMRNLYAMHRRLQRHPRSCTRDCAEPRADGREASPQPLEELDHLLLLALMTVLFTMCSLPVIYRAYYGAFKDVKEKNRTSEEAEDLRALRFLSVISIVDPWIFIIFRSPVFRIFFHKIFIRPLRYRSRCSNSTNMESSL

[4] = molecular target: Prostacyclin receptor (Homo sapiens) (UniProt P43119); assay: The compound was evaluated for the affinity towards Prostaglandin I2 receptor
Sequence of Prostacyclin receptor (Homo sapiens) (P43119 whole entry): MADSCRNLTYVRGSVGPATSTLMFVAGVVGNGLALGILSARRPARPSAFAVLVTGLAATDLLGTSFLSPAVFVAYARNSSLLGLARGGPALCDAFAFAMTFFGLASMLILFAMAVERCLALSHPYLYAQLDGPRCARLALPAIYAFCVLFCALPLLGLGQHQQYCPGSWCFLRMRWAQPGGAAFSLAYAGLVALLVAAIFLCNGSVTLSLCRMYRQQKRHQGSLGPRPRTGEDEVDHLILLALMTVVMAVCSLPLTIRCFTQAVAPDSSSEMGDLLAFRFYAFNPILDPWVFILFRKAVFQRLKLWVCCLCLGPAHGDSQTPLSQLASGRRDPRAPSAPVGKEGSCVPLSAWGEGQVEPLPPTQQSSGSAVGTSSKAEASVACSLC

[5] = molecular target: Prostacyclin receptor (Homo sapiens) (UniProt P43119); assay: The compound was evaluated for the affinity towards Prostaglandin I2 receptor; not parallel
[6] = molecular target: Prostacyclin receptor (Homo sapiens) (UniProt P43119); assay: The compound was evaluated for the affinity towards Prostaglandin I2 receptor; no competition
[7] = The compound was evaluated for the affinity towards PGE-2 receptor; no competition

Row | IC50 [1] | KF [2] | KF [3] | KF [4] | KF [5] | KF [6] | KF [7] | Compound
1 | 1.6 nM | 140 | 600 | 60 |  |  |  | CC#CCC(C)[C@H](O)/C=C/[C@H]1[C@H](O)CC(=O)[C@@H]1CC(=O)CCCCC(=O)O (some centres undefined)
2 | 100 nM |  |  |  | 200 |  |  | CC#CC[C@H](C)[C@H](O)/C=C/[C@@H]1[C@@H](CC(=O)CCCCC(=O)O)[C@H](F)C[C@H]1O
3 | 20 nM | 700 |  |  | 32 |  |  | CCC#CC[C@H](C)[C@H](O)C#C[C@@H]1[C@@H](CC(=O)CCCCC(=O)O)[C@H](F)C[C@H]1O
4 | 1000 nM |  |  |  |  | inactive |  | CC#CC[C@H](C)[C@H](O)/C=C/[C@@H]1[C@@H](CC(=O)CCCCC(=O)O)[C@@H](F)C[C@H]1O
5 | 7 nM | 7.1 |  | 129 |  |  |  | CCCCC[C@H](O)/C=C/[C@H]1[C@H](O)CC(=O)[C@@H]1CC(=O)CCCCC(=O)O
6 | 0.09 nM | 7.5 |  | 5 |  |  |  | CCC#CC[C@H](C)[C@H](O)C#C[C@H]1[C@H](O)CC(=O)[C@@H]1CC(=O)CCCCC(=O)O
7 | 1 nM | 40 |  |  | 40 |  |  | CC#CC[C@H](C)[C@H](O)/C=C/[C@H]1[C@H](O)CC(=O)[C@@H]1CC(=O)CCCCC(=O)O
8 | 3 nM |  | 70 | 58 |  |  | inactive | O=C(O)CCCCC(=O)C[C@H]1C(=O)C[C@@H](O)[C@@H]1/C=C/[C@@H](O)C1CCCCC1
